Measured values from US10553890B2, “Aqueous redox flow batteries” (UCHICAGO ARGONNE, LLC, priority 2017, dated 2020).
Entries after “also recorded” stand apart in the source; their conditions may differ.

Assays:
Assay type in all cases: physicochemical
[1] = Solubility in aqueous acid; settings: aqueous acid / acidic conditions
[2] = Cyclic voltammetry (three-electrode cell, glassy carbon working electrode, Ag/AgCl reference); settings: for redox stability (irreversible side reactions): 5 mV/s, cycling 0 V up to about 1.2 V; for oxidation potential: glassy carbon; for observed oxidation potential: 1 mM in 0.5 M sulfuric acid, scan rate 20 mV/s, 0 V to 1 V
Experimental: Cyclic voltammetry (CV) measurements: CV experiments were performed in custom-made three-electrode electrochemical cells with 3 mm diameter glassy carbon working electrode, a Ag/AgCl reference electrode and a platinum wire counter electrode using 1470E SOLARTRON ANALYTICAL INSTRUMENT.

[3] = Galvanostatic bulk electrolysis cycling; settings: 1 mM in 3.0 M sulfuric acid, constant current 2.68 mA, cut-off 0.25 V to 0.85 V
Experimental: Galvanostatic bulk electrolysis: Galvanostatic cycling test was performed with a three-electrode bulk electrolysis electrochemical cell using 1470E SOLARTRON ANALYTICAL INSTRUMENT. Reticulated vitreous carbon was used as the working electrode, Ag/AgCl electrode was used as the reference electrode and coiled platinum enclosed in glass tubes with porous ceramic frit was used as the counter electrode.

[4] = Diffusion coefficient measurement using Randle-Sevcik equation; settings: scan rates 10-100 mV/s
Experimental: Diffusion coefficient measurement: Diffusion coefficients were measured using Randle-Sevcik equation as shown below. In this equation, ip is the peak current, n represents the number of electrons transferred in the redox reaction, F is the Faraday's constant, A is the electrode area, c represents the concentration, v is the scan rate, D is the diffusion coefficient, R is the gas constant and T is the absolute temperature.

[5] = 5 mM in 1.0 M sulfuric acid, scan rate 5 mV/s

CC1(C)CC(N)CC(C)(C)N1[O] [4-NH2-TEMPO, 4-amino-2,2,6,6-tetramethylpiperidyl-1-oxyl]
solubility [1]: higher solubility than 4-OH-TEMPO
redox stability (irreversible side reactions) ([2]; 5 mM in 1.0 M sulfuric acid): irreversible reduction; also recorded: greater redox stability (i.e., less severe irreversible side reactions) than 4-OH-TEMPO
oxidation potential higher than 4-OH-TEMPO [2, 5]: 0.09 V
oxidation potential [2, 5]: 0.92 V (vs. AG/AgCl)

CC1(C)CC(O)CC(C)(C)N1[O] [4-OH-TEMPO, reference compound]
redox stability (irreversible side reactions) ([2]; 5 mM in 1.0 M sulfuric acid): irreversible reduction
oxidation potential [2, 5]: 0.83 V (vs. AG/AgCl)

CN(C)c1cc(S(=O)(=O)O)c(O)c(S(=O)(=O)O)c1 [DADPS, 5-(dimethylamino)-2-hydroxybenzene-1,3-disulfonic acid]
capacity and capacity retention [3]: very similar
potential in bulk electrolysis relative to unsubstituted aminophenol (DMAP) [3]: increased potential
observed oxidation potential [2]: 0.66 V (vs. AG/AgCl)

CN(C)c1ccc(O)cc1 [DMAP, 4-dimethylaminophenol]
capacity and capacity retention [3]: very similar
observed oxidation potential [2]: 0.56 V (vs. AG/AgCl)
diffusion coefficient ([4]; 1 mM in 0.5 M sulfuric acid): 3.9×10^−6 cm^2/s

NCCc1ccc(O)c(O)c1 [dopamine, 3,4-dihydroxyphenethylamine, reference compound]
diffusion coefficient ([4]; 50 mM in 0.5 M sulfuric acid): 2.43×10^−6 cm^2/s
